Source: US20140135310A1, “SULPHONAMIDE DERIVATIVES OF ALICYCLIC AMINES FOR THE TREATMENT OF CENTRAL NERVOUS SYSTEM DISEASES” (Adamed Sp. z o.o., priority 2011, published 2014)

Tests used:
Type in all cases: cell-based
[1] = biological target: D3 dopaminergic receptors (Homo sapiens, UniProt P35462); experiment: Cellular functional assay, D3 dopaminergic receptors; conditions: D3 (h), CHO cells; for D3 ag [%]: agonism, percent of control specific agonist response (0.3 μM dopamine for control); for D3 antag [%]: antagonism, stimulus dopamine (10 nM)
D3 dopaminergic receptors, sequence (P35462 whole entry): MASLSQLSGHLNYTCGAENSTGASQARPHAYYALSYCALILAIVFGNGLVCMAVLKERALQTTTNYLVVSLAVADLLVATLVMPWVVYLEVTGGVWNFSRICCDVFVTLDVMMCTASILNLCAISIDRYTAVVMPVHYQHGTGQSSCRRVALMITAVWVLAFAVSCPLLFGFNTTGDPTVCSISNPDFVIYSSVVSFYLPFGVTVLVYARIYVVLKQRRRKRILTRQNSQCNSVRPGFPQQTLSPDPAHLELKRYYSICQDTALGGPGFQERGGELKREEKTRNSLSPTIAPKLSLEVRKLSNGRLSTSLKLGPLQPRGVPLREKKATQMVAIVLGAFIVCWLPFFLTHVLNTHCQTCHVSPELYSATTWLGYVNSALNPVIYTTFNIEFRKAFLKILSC
Description: (§1) The results are expressed as a percent of control specific agonist response ((measured specific response/control specific agonist response)×100) obtained in the presence of the test compounds.
(§2) The EC50 values (concentration producing a half-maximal specific response) and IC50 values (concentration causing a half-maximal inhibition of the control specific agonist response) were determined by non-linear regression analysis of the concentration-response curves generated with mean replicate values using Hill equation curve fitting (Y=D+[(A−D)/(1+(C/C50)nH)], where Y=specific response, D=minimum specific response, A=maximum specific response, C=compound concentration, and C50=EC50 or IC50, and nH=slope factor). This analysis was performed using a software developed at Cerep (Hill software) and validated by comparison with data generated by the commercial software SigmaPlot® 4.0 for Windows® (© 1997 by SPSS Inc.).
(§3) For the antagonists, the apparent dissociation constants (Kb) were calculated using the modified Cheng Prusoff equation (Kb=IC50/(1+(A/EC50A)), where A=concentration of reference agonist in the assay, and EC50A=EC50 value of the reference agonist).

[2] = biological target: T1, D4 dopaminergic receptors (Homo sapiens, UniProt P21917); experiment: Cellular functional assay, D4 dopaminergic receptors; conditions: D4.4 (h), CHO cells; for D4 ag [%]: agonism, percent of control specific agonist response (300 nM dopamine for control); for D4 antag [%]: antagonism, stimulus dopamine (100 nM)
T1 sequence (P21917 1-419): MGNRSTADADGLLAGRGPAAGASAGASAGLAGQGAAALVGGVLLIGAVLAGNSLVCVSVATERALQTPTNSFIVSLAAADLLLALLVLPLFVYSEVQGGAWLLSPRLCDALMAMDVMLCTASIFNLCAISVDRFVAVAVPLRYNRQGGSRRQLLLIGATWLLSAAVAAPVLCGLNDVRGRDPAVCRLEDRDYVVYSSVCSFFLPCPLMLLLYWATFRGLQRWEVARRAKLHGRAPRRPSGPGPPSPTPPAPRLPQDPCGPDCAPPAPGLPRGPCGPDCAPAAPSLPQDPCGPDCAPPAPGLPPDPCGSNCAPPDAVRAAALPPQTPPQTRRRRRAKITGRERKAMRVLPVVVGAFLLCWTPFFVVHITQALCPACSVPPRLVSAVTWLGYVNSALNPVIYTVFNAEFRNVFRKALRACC
Description: as §1, §2, §3

[3] = biological target: D2 dopaminergic receptors (Homo sapiens, UniProt P14416); experiment: Cellular functional assay, D2 dopaminergic receptors; conditions: D2S (h), HEK-293 cells; for D2 ag [%]: agonism, percent of control specific agonist response (3 μM dopamine for control); for D2 antag [%]: antagonism, stimulus dopamine (30 nM)
D2 dopaminergic receptors, sequence (P14416 whole entry): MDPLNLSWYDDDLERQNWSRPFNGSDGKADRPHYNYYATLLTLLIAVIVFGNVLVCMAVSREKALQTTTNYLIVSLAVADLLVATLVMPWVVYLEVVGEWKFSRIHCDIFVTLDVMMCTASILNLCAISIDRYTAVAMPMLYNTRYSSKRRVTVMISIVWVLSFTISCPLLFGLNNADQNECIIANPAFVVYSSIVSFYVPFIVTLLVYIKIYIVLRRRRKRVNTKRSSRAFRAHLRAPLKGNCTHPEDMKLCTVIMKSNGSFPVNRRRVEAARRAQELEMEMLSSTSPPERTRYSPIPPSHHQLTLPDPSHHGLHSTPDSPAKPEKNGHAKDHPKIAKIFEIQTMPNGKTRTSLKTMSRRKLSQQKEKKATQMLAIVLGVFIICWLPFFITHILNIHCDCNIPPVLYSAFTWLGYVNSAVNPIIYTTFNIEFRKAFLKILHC
Description: as §1, §2, §3

[4] = biological target: T2, 5-HT1A serotoninergic receptors (Homo sapiens, UniProt P08908); experiment: Cellular functional assay, 5-HT1A serotoninergic receptors; conditions: for 5-HT1A ag [%]: agonist mode, percent of control specific agonist response; for 5-HT1A antag [%]: antagonist mode
T2 sequence (P08908 1-422): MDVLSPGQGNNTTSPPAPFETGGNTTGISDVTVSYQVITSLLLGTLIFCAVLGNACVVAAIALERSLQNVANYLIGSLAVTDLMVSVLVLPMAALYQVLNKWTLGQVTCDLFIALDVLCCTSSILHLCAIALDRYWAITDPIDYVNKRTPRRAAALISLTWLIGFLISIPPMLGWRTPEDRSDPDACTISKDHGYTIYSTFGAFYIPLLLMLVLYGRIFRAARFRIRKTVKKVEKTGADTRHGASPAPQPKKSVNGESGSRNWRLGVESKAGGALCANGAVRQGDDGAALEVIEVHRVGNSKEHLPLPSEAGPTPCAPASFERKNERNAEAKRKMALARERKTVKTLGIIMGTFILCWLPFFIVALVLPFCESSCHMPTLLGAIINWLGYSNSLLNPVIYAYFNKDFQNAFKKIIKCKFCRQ
Description: as §1, §2, §3

[5] = biological target: T3, 5-HT2C serotoninergic receptors (Homo sapiens, UniProt P28335); experiment: Cellular functional assay, 5-HT2C serotoninergic receptors; conditions: agonist mode; percent of control specific agonist response
T3 sequence (P28335 33-458): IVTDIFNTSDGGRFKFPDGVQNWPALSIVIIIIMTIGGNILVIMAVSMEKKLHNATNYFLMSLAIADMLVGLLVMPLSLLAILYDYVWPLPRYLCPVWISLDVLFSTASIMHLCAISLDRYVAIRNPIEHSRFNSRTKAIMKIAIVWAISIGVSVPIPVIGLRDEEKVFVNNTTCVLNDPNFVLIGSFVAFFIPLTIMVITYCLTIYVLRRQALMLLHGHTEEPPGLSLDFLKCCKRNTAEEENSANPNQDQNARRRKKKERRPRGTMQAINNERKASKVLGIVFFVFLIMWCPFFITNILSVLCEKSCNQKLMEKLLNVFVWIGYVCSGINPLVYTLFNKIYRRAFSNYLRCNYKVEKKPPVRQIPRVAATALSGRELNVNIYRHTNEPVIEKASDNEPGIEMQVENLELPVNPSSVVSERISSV
Description: as §1, §2, §3

| Molecule | D3 ag [%] [1] | D3 antag [%] [1] | D4 ag [%] [2] | D4 antag [%] [2] | D2 ag [%] [3] | D2 antag [%] [3] | 5-HT1A ag [%] [4] | 5-HT2C ag [%] [5] | 5-HT1A antag [%] [4] |
| --- | --- | --- | --- | --- | --- | --- | --- | --- | --- |
| Cc1cc(S(=O)(=O)NC2CCN(CCCc3noc4cc(F)ccc34)C2)c(C)s1 (stereo not drawn) [Compound 221, N-[1-[3-(6-Fluoro-1,2-benzoxazol-3-yl)propyl]pyrrolidin-3-yl]-2,5-dimethyl-thiophene-3-sulphonamide] | −3% | 100% | 10% | 73% | 14% | 97% | – | – | – |
| Cc1cc(S(=O)(=O)N[C@@H]2CCN(CCCc3noc4cc(F)ccc34)C2)c(C)s1 [Compound 222, N-[(3R)-1-[3-(6-Fluoro-1,2-benzoxazol-3-yl)propyl]pyrrolidin-3-yl]-2,5-dimethyl-thiophene-3-sulphonamide] | – | – | 6% | 58% | 6% | 65% | – | – | – |
| O=S(=O)(NC1CN(CCOc2cccc3[nH]ccc23)C1)c1cccc2ccccc12 [Compound 49, N-[1-[2-(1H-Indol-4-yloxy)ethyl]azetidin-3-yl]naphthalene-1-sulphonamide] | 75% | 12% | – | – | 57% | 97% | 39% | – | – |
| O=S(=O)(NC1CN(CCOc2cccc3[nH]ccc23)C1)c1ccc2ccccc2c1 [Compound 50, N-[1-[2-(1H-Indol-4-yloxy)ethyl]azetidin-3-yl]naphthalene-2-sulphonamide] | 85% | 0% | 62% | 32% | 56% | 92% | 48% | – | – |
| COc1ccc2cc(S(=O)(=O)N[C@@H]3CCN(CCCc4noc5cc(F)ccc45)C3)ccc2c1 [Compound 230, N-[(3R)-1-[3-(6-Fluoro-1,2-benzoxazol-3-yl)propyl]pyrrolidin-3-yl]-6-methoxy-naphthalene-2-sulphonamide] | 0% | 89% | – | – | 3% | 94% | – | −2% | – |
| O=S(=O)(NC1CCN(CCOc2nsc3ccccc23)C1)c1ccc2ccccc2c1 (stereo not drawn) [Compound 39, N-[1-[2-(1,2-Benzothiazol-3-yloxy)ethyl]pyrrolidin-3-yl]naphthalene-2-sulphonamide] | 66% | 16% | – | – | – | – | 34% | – | – |
| O=S(=O)(N[C@H]1CCN(CCCc2noc3cc(F)ccc23)C1)c1csc2ccccc12 [Compound 225, N-[(3S)-1-[3-(6-Fluoro-1,2-benzoxazol-3-yl)propyl]pyrrolidin-3-yl]benzothiophene-3-sulphonamide] | – | – | −3% | 35% | 7% | 52% | – | – | – |
| N-[[1-[2-[(2,2-Dimethyl-3H-benzofuran-7-yl)oxy]ethyl]azetidin-3-yl]methyl]-3-hydroxy-benzenesulphonamide [Compound 111] | – | – | – | – | 36% | 89% | 48% | – | 89% |
| Cc1ccc2sc(S(=O)(=O)N[C@@H]3CCN(CCCc4noc5cc(F)ccc45)C3)cc2c1 [Compound 228, N-[(3R)-1-[3-(6-Fluoro-1,2-benzoxazol-3-yl)propyl]pyrrolidin-3-yl]-5-methyl-benzothiophene-2-sulphonamide] | −15% | 98% | – | – | −1% | 94% | – | 0% | – |
| Cc1cccc(S(=O)(=O)NC2CN(CCOc3cccc4c3OCCO4)C2)c1 [Compound 93, N-[1-[2-(2,3-Dihydro-1,4-benzodioxan-8-yloxy)ethyl]azetidin-3-yl]-3-methyl-benzenesulphonamide] | – | – | – | – | – | – | 37% | – | 76% |
| O=S(=O)(NC1CCN(CCCc2noc3cc(F)ccc23)C1)c1csc2ccccc12 (stereo not drawn) [Compound 26, N-[1-[3-(6-Fluoro-1,2-benzoxazol-3-yl)propyl]pyrrolidin-3-yl]-benzothiophene-3-sulphonamide] | – | – | −4% | 88% | 3% | 68% | – | – | – |
| O=S(=O)(NC1CCN(CCCc2noc3cc(F)ccc23)C1)c1cccc2ccccc12 (stereo not drawn) [Compound 20, N-[1-[3-(6-Fluoro-1,2-benzoxazol-3-yl)propyl]pyrrolidin-3-yl]naphthalene-1-sulphonamide] | – | – | 17% | 79% | 4% | 32% | – | – | – |
| O=S(=O)(NC1CCN(CCCc2c[nH]c3ccc(F)cc23)C1)c1ccc2ccccc2c1 (stereo not drawn) [Compound 80, N-[1-[3-(5-Fluoro-1H-indol-3-yl)propyl]pyrrolidin-3-yl]naphthalene-2-sulphonamide] | 91% | −5% | 6% | 80% | 33% | 78% | 42% | – | – |
| Cc1cccc(S(=O)(=O)NC2CCN(CCCc3c[nH]c4ccc(F)cc34)C2)c1 (stereo not drawn) [Compound 78, N-[1-[3-(5-Fluoro-1H-indol-3-yl)propyl]pyrrolidin-3-yl]-3-methyl-benzenesulphonamide] | 89% | −10% | – | – | – | – | 54% | – | – |
| O=S(=O)(N[C@@H]1CCN(CCCc2noc3cc(F)ccc23)C1)c1csc2ccccc12 [Compound 224, N-[(3R)-1-[3-(6-Fluoro-1,2-benzoxazol-3-yl)propyl]pyrrolidin-3-yl]benzothiophene-3-sulphonamide] | – | – | −7% | 84% | 5% | 57% | – | – | – |
| O=S(=O)(NC1CN(CCOc2cccc3c2OCCO3)C1)c1ccc(Cl)cc1 [Compound 92, 4-Chloro-N-[1-[2-(2,3-dihydro-1,4-benzodioxan-8-yloxy)ethyl]azetidin-3-yl]benzene-sulphonamide] | – | – | – | – | – | – | 47% | – | 89% |
| O=S(=O)(NC1CCN(CCOc2cccc3[nH]ccc23)CC1)c1ccccc1 [Compound 55, N-[1-[2-(1H-Indol-4-yloxy)ethyl]-4-piperidine]benzenesulphonamide] | 82% | −33% | – | – | – | – | 72% | – | 18% |
| Cc1cc(S(=O)(=O)N[C@H]2CCN(CCCc3noc4cc(F)ccc34)C2)c(C)s1 [Compound 223, N-[(3S)-1-[3-(6-Fluoro-1,2-benzoxazol-3-yl)propyl]pyrrolidin-3-yl]-2,5-dimethyl-thiophene-3-sulphonamide] | – | – | 4% | 22% | – | – | – | – | – |
